From US20260364186A1, “Chemical Conjugates, Compositions, and Methods of Preparation and Use Thereof” (Transfection Holdings Limited, priority 2022, published 2026)

Assays:
Type in all cases: cell-based, human
[1] = system: HT29 (colorectal cancer cell line); assay: FACS uptake of BODIPY FL conjugates (Example 4); conditions: 200 nM, 5 min
Method: FIG. 4A: Conjugate compounds coupled to BODIPY FL were tested for uptake using 200 nM each conjugate and 5 minute incubation with colorectal cancer cell line HT29. Mean fluorescent intensities (MFI). 1,000 cells were sorted by FACS.
Materials and methods: The HT-29 line was originally isolated from a primary tumour in 1964 from a person. This cell line is positive for expression of N-ras and overexpression of p53 antigen. The human colon adenocarcinoma cell line HT29, is not only used to study the biology of human colon cancers, but it is receiving special interest in studies focused on food digestion and bioavailability due to the ability to express characteristics of mature intestinal cells. The application of this cell line to transport studies of drugs and food compounds is illustrated, especially when the effect of the mucus layer is considered or used as co-culture in combination with Caco-2 cells. These cells have shown a high rate of glucose consumption and therefore, they require high glucose concentration in the medium. Verhoeck et al., 2015.
For these experiments, HT-29 or MEF cells were diluted on αMEM media (supplemented with 10% FBS+1% penicillin-streptomycin) to give a 250 cells/μL suspension of which 200 μL were aliquoted into each well of a 96 well plate followed by incubation for 24 hours. Next, 2 μL of 100 μM stock solutions in DMSO from the conjugates coupled to BODIPY were diluted with 998 μL of αMEM media to give a 200 nM solution. After 24 hour incubation, media was removed and 200 μL of 138 and pantothenic acid/pantothenic acid derivatives coupled to BODIPY 200 nM solutions were added and cells were incubated for 5 minutes at 37 °C. After 5 minutes, the compounds and DMSO solutions were removed and cells were washed with PBS. Then, 100 μL of TrypLE trypsin were added to each well and incubated for 5 minutes at 37 °C. After this time, 100 μL of DMEM media were added to the wells and samples were sorted through FACS biosort. The studies were completed in duplicated wells.

[2] = system: NZM40 (NRAS Q16H) melanoma cells; assay: FACS uptake of BODIPY FL conjugates, 200 nM, 5 min (Example 2)
Method: FIG. 2. Conjugate compounds coupled to BODIPY FL were tested for uptake using 200 nM each conjugate and 5 minute incubation with melanoma cell line NZM11 (BRAF V600E mutant metastatic melanoma), melanoma cell line NZM40 (NRAS Q16H mutant metastatic melanoma) and melanoma cell line NZM9 (BRAF and NRAS wildtype metastatic melanoma). Mean fluorescent intensities (MFI). 2,000 cells (NZM11), 1,000 cells (NZM40) and 500-1,000 cells (NZM9). Cells were sorted by FACS. Bars represent mean±SD. Results were from a single experiment done in triplicate.
NZM40 is an adherent cell line which was originally derived from a metastatic melanoma from a patient, in 2004. This human metastatic melanoma is identified with code CBA-1381 from Cell bank Australia. […] Ras is a superfamily of proteins implicated in cell growth, survival and differentiation. NRAS (neuroblastoma rat sarcoma) was the first oncogene recognized in melanoma and mutations in NRAS account for 20% of all melanomas. NRAS mutations primarily occur at position 61 and involve amino acid change from glutamine (Q) to arginine (R), lysine (K), leucine (L) or histidine (H). These mutations block NRAS into a GTP-bound state damaging its GTPase activity (FIG. 1). Patients are usually older (>55 years) with previous UV exposure. See Garcia-Alverez et al., 2021.
For screening, NZM11, NZM40 and NZM9 cells were suspended at […] dispensed into 96 well plates and left to settle for 48 hours. Then, 10 μL of 10 mM stock solutions in DMSO for the conjugates were diluted with HBSS to afford 400 nM solution. Next, 400 nM compounds and DMSO solutions were diluted 1:1 with MEMα media to afford 200 nM solutions. After 48 hours the media was removed from the 96 well plates and 200 μL of 200 nM conjugates solutions dispensed to each well (in triplicate) and incubated for 5 minutes at 37 °C. After 5 minutes, the media was removed and cells washed with PBS. Then, 100 μL of TrypLE trypsin (ThermoFisher Scientific) were added to each well and incubated for 5 minutes at 37 °C after which, 100 μL of MEMα media were added and samples were sorted through FACS biosort. The FACS results output were represented as the mean of the fluorescence intensities (in arbitrary units) measured for cells sorted in every sample.

neutrophils = assay: FACS uptake of BODIPY FL conjugates in PBMCs (Example 3); conditions: 135 nM
Method: (§1) FIG. 3A. Conjugate compounds coupled to BODIPY FL were tested for uptake using 135 nM each conjugate and 4.5 minute incubation with human lymphocytes, monocytes and neutrophils (from a healthy donor). Mean fluorescent intensities (MFI). 1,000 cells (lymphocytes), 500 cells (monocytes) and 250 cells (neutrophils) sorted by FACS. Bars represent mean±SD. Results represent a single experiment done in duplicate.
(§2) In addition to this, 25 mL of full blood was collected from a healthy donor in lithium-heparin vacutainer. Peripheral blood mononuclear cells (PBMCs) were collected after ficoll separation. PBMCs then were centrifuge at 400 g for 5 minutes. Supernatant was removed from the cells and resuspended with 20 mL of HBSS with a final concentration of 417,500 cells/mL. Then, 479 μL of cells suspension were poured into Eppendorf tube and 1000 μL of 200 nM drug solution in HBSS were added to afford 135 nM final drug concentration, incubated at 37 °C for 5 minutes. After incubation time, PBMCs were centrifuged at 400 g for 5 minutes. Supernatant was removed from the cells and pellet resuspended with 200 μL of HBSS. Suspension was transferred to 96 well-plate and run on FACS machine, approximately 1,000-250 cells analysed. The FACS results output represented the mean of the fluorescence intensities (in arbitrary units) measured for cells sorted in every sample.

monocytes = assay: as above; conditions: 135 nM
Method: as §1, §2

Jurkat cells = assay: FACS uptake of BODIPY FL conjugates in Jurkat cells (Example 3); conditions: 200 nM
Method: FIG. 3B: Conjugate compounds coupled to BODIPY FL were tested for uptake using 200 nM each conjugate and 5 minute incubation with immortalized T lymphocyte cell line, Jurkat cells. Mean fluorescent intensities (MFI). 1,000 cells sorted by FACS. Bars represent mean±SD. Results represent a single experiment done in duplicate.
Materials and methods: Jurkat cells have been previously shown to be defective in the expression of two lipid phosphatases, PTEN (phosphatase and tensin homologue) and SHIP (SH2-domain-containing inositol polyphosphate 5′ phosphatase). The biological implications of SHIP deficiency in T cells remain under evaluation, but the loss of PTEN leads to activation of the phosphatidylinositol 3-kinase (PI3K)-signalling pathway. See Abraham and Weiss, 2004. This activation of PI3K protein is also on NZM40 melanoma cell line, and represents a key mutation for its sustained proliferation. See Silva et al., 2017. For these experiments, Jurkat cells were diluted on RPMI media (supplemented with 10% FBS+1% penicillin-streptomycin) to afford 400 cells/μL. 2 μL of 100 μM stock solutions in DMSO from 138 and pantothenic acid/pantothenic acid derivatives coupled to BODIPY were diluted with 998 μL of RPMI media (supplemented with 10% FBS+1% penicillin-streptomycin) to afford 200 nM solution. 100,000 cells were dispensed to Eppendorf tubes, centrifuged for 1.5 min at 5000 rcf and the supernatant was removed. The cells then were incubated with 500 μL of solutions at 200 nM for 4.5 min and 37 °C. After the incubation time, cells were centrifuged for 1.5 minutes at 5000 rcf. Supernatant was removed and cell pellet re-suspended in 200 μL fresh RPMI media, transferred to 96 well-plate and run on FACS machine, approximately 1,000 cells analysed.

SMILES	uptake (fluorescent intensities) [1]	uptake (fluorescence intensities) [2]	targeting / fluorescence intensities (neutrophils)	targeting / fluorescence intensities (monocytes)	uptake / targeting (Jurkat cells)
CC1=CC(C)=[N+]2C1=Cc1ccc(CCCn3cc(CCNC(=O)/C=C/NC(=O)[C@H]4OC(C)(C)OCC4(C)C)nn3)n1[B-]2(F)F [Compound 127, (E)-N-((((3-[4,4-Difluoro-5,7-dimethyl-4-bora-3a,4a-diaza-s-indacene-3-yl]propyl)-1H-1,2,3-triazol-4-yl)ethylamino)-3-oxoprop-1-enyl)-2,2,5,5-tetramethyl-1,3-dioxane-4-carboxamide]	moderately higher fluorescent intensities	showed selectivity	showed targeting	showed targeting	showed targeting
CC1=CC(C)=[N+]2C1=Cc1ccc(CCCn3cc(CCNC(=O)/C=C\NC(=O)[C@H](O)C(C)(C)CO)nn3)n1[B-]2(F)F [Compound 128, (Z)—N-((((3-[4,4-Difluoro-5,7-dimethyl-4-bora-3a,4a-diaza-s-indacene-3-yl]propyl)-1H-1,2,3-triazol-4-yl)ethylamino)-3-oxoprop-1-enyl)-2,4-dihydroxy-3,3-dimethylbutanamide]		showed selectivity	significant intensities	significant intensities	showed targeting
